Assay results published in article PMC10041525, “New Dual Inhibitors of Bacterial Topoisomerases with Broad-Spectrum Antibacterial Activity and In Vivo Efficacy against Vancomycin-Intermediate Staphylococcus aureus” (Journal of Medicinal Chemistry, 2023).
Values after ≈ are worked out from the molar mass of the structure shown. Read-outs that look alike come from different tables or passages of the source.

Assays:
E. faecium (n = 13) = test: MIC broth microdilution at IHMA Europe; type: cell-based; details: for MIC: Enterococcus faecium, read-out: MIC
P. aeruginosa ATCC 27853 = test: IHMA QC MIC; type: cell-based; details: Pseudomonas aeruginosa, read-out: MIC
E. coli ATCC 25922 = test: IHMA QC MIC; type: cell-based; details: Escherichia coli, read-out: MIC
E. faecalis ATCC 29212 = test: IHMA QC MIC; type: cell-based
Source text: (§1) Supplement jm2c01905_si_004.xlsx, sheet "QC" | column: MIC [µg/mL]

H. influenzae ATCC 49247 = test: IHMA QC MIC; type: cell-based; details: Haemophilus influenzae, read-out: MIC
Source text: as §1

H. influenzae ATCC 49766 = test: IHMA QC MIC; type: cell-based
Source text: as §1

S. pneumoniae ATCC 49619 [1] = test: IHMA QC MIC; type: cell-based
Source text: as §1

S. pneumoniae ATCC 49619 [2] = system: S. pneumoniae ATCC 49619; design: method as in earlier work; details: QC range for S. pneumoniae ATCC 49619, ref CLSI; cited from earlier work

**Q.** Which MIC (E. faecium (n = 13); E. faecium IHMA N° 1764866) does the source give for `CC1(C)S[C@@H]2[C@H](NC(=O)[C@H](N)c3ccccc3)C(=O)N2[C@H]1C(=O)O` [Ampicillin, ampicillin] here?
**A.** The MIC was over 32 µg/mL.

**Q.** And the MIC (E. faecium (n = 13); E. faecium IHMA N° 1765436)?
**A.** Its MIC is over 32 µg/mL.

**Q.** What about the MIC (E. faecium (n = 13); E. faecium IHMA N° 1765746) of the same molecule?
**A.** Its MIC is over 32 µg/mL.

**Q.** And the MIC (E. faecium (n = 13); E. faecium IHMA N° 1893573)?
**A.** Its MIC is over 32 µg/mL.

**Q.** And the MIC (E. faecium (n = 13); E. faecium IHMA N° 1893846)?
**A.** The MIC was over 32 µg/mL.

**Q.** And the MIC (E. faecium (n = 13); E. faecium IHMA N° 1893942)?
**A.** The MIC was over 32 µg/mL.

**Q.** And the MIC (E. faecium (n = 13); E. faecium IHMA N° 1894055)?
**A.** Its MIC is over 32 µg/mL.

**Q.** What about the MIC (E. faecium (n = 13); E. faecium IHMA N° 1897027) of the same molecule?
**A.** The MIC was over 32 µg/mL.

**Q.** And the MIC (E. faecium (n = 13); E. faecium IHMA N° 1897101)?
**A.** The MIC was over 32 µg/mL.

**Q.** And the MIC (E. faecium (n = 13); E. faecium IHMA N° 1904592)?
**A.** The MIC was over 32 µg/mL.

**Q.** And the MIC (E. faecium (n = 13); E. faecium IHMA N° 2075051)?
**A.** Its MIC is over 32 µg/mL.

**Q.** What about the MIC (E. faecium (n = 13); E. faecium IHMA N° 2077718) of the same molecule?
**A.** Its MIC is over 32 µg/mL.

**Q.** What about the MIC (E. faecium (n = 13); E. faecium IHMA N° 2083787) of the same molecule?
**A.** The MIC was over 32 µg/mL.

**Q.** And the “Cumulative % at MIC” value (E. faecium (n = 13); MIC >32 µg/mL)?
**A.** Its value is 100.0%.

**Q.** And the “No. of isolates at MIC” value (E. faecium (n = 13); MIC >32 µg/mL)?
**A.** The value was 13.

**Q.** And the MIC (P. aeruginosa ATCC 27853; ATCC27853, QC strain P. aeruginosa ATCC 27853, test date 2021-11-11)?
**A.** The MIC was over 32 µg/mL.

**Q.** And the MIC (P. aeruginosa ATCC 27853; ATCC27853, QC strain P. aeruginosa ATCC 27853, test date 2021-11-26)?
**A.** The MIC was over 32 µg/mL.

**Q.** And the MIC (E. coli ATCC 25922; ATCC25922, QC strain E. coli ATCC 25922, test date 2021-11-11)?
**A.** Its MIC is 8 µg/mL (≈ 22.9 µM).

**Q.** And the MIC (E. coli ATCC 25922; ATCC25922, QC strain E. coli ATCC 25922, test date 2021-11-26)?
**A.** Its MIC is 4 µg/mL (≈ 11.4 µM).

**Q.** What about the MIC (E. faecalis ATCC 29212; Enterococcus faecalis, ATCC29212, QC strain E. faecalis ATCC 29212, test date 2021-11-11, read-out: MIC) of the same molecule?
**A.** Its MIC is 1 µg/mL (≈ 2.86 µM).

**Q.** What about the MIC (E. faecalis ATCC 29212; QC strain E. faecalis ATCC 29212, test date 2021-11-26) of the same molecule?
**A.** Its MIC is 1 µg/mL (≈ 2.86 µM).

**Q.** And the MIC (H. influenzae ATCC 49247; ATCC49247, QC strain H. influenzae ATCC 49247, test date 2021-11-11)?
**A.** The MIC was 4 µg/mL (≈ 11.4 µM).

**Q.** And the MIC (H. influenzae ATCC 49247; ATCC49247, QC strain H. influenzae ATCC 49247, test date 2021-11-26)?
**A.** The MIC was 4 µg/mL (≈ 11.4 µM).

**Q.** And the MIC (H. influenzae ATCC 49766; Haemophilus influenzae, ATCC49766, QC strain H. influenzae ATCC 49766, test date 2021-11-11, read-out: MIC)?
**A.** The MIC was 0.12 µg/mL (≈ 0.343 µM).

**Q.** What about the MIC (H. influenzae ATCC 49766; QC strain H. influenzae ATCC 49766, test date 2021-11-26) of the same molecule?
**A.** The MIC was 0.12 µg/mL (≈ 0.343 µM).

**Q.** And the MIC (S. pneumoniae ATCC 49619 [1]; QC strain S. pneumoniae ATCC 49619, test date 2021-11-26)?
**A.** Its MIC is 0.06 µg/mL (≈ 0.172 µM).

**Q.** What about the MIC (S. pneumoniae ATCC 49619 [1]; Streptococcus pneumoniae, ATCC49619, QC strain S. pneumoniae ATCC 49619, test date 2021-11-11, read-out: MIC) of the same molecule?
**A.** The MIC was 0.06 µg/mL (≈ 0.172 µM).

**Q.** What about the “MIC, CLSI Range” value (S. pneumoniae ATCC 49619 [2]) of the same molecule?
**A.** Its value is 0,06 - 0,25 µg/mL.
